For test [1], the target named is T1, Aminopeptidase N (Plasmodium falciparum FcB1/Columbia, UniProt O96935).
T1 sequence (O96935 whole entry): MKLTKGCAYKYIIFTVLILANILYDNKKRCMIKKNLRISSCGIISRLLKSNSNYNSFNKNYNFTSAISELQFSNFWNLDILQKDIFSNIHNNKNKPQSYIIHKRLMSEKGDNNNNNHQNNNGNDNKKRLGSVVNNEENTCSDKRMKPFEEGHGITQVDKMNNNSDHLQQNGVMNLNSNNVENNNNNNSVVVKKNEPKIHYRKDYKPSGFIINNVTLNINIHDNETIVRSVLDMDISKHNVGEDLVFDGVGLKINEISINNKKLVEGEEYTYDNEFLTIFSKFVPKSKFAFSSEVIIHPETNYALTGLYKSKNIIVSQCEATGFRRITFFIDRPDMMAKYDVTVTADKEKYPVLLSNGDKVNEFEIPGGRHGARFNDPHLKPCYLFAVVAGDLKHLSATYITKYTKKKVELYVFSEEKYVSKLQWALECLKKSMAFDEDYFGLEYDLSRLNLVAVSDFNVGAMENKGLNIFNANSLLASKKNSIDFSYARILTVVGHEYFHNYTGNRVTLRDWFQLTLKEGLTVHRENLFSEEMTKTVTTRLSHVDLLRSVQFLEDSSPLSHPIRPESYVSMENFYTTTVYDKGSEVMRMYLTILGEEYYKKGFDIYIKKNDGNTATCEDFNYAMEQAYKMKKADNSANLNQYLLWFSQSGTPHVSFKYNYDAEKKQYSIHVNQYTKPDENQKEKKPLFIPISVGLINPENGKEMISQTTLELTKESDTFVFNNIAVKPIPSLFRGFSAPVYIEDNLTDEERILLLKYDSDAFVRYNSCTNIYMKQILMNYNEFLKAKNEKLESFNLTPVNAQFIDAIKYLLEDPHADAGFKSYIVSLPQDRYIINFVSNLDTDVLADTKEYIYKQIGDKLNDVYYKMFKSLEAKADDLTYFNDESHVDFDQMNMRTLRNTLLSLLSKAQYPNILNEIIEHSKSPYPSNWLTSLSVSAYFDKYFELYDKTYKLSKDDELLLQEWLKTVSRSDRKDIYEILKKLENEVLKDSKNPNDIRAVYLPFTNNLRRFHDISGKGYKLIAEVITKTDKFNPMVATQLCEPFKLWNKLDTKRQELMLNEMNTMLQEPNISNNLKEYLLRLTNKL
Briefly: P. falciparum M1AAP inhibitors, biochemical, fluorogenic H-Leu-NHMec substrate, 1536-well (AID 1445). Also noted: species or system Plasmodium falciparum 3D7, 3D7.

In test [2] the target is T2, Corticotropin-releasing factor receptor 2/Corticotropin-releasing factor-binding protein (Homo sapiens, UniProt P24387+Q13324).
T2 sequence (Q13324 whole entry): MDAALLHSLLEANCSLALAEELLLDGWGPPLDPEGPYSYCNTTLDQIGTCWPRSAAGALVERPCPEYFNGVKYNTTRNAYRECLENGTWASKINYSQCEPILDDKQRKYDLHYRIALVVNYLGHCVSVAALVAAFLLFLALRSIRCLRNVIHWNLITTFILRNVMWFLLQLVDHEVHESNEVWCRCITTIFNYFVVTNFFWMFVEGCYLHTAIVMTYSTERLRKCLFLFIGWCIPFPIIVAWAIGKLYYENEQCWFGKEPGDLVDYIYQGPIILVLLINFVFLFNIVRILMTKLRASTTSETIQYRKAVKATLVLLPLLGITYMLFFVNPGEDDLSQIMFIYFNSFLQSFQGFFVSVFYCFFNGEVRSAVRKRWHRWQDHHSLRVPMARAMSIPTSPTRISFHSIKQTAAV
T2 sequence (P24387 whole entry): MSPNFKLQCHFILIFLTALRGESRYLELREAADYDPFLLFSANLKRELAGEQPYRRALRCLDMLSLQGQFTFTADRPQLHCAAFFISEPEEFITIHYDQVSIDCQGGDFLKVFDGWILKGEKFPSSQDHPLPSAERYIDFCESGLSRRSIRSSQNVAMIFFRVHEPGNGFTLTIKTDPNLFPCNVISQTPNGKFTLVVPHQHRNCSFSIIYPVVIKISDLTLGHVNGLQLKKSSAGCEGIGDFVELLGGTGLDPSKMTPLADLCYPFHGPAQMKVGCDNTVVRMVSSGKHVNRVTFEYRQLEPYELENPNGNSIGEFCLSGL
Briefly: Dose Response confirmation of uHTS hits for small molecule antagonists of the CRF-binding protein and CRF-R2 receptor complex. The test is classed as functional. The conditions noted are these: read-out: IC50_Mean.

The target in test [3] is T2, Corticotropin-releasing factor receptor 2/Corticotropin-releasing factor-binding protein. As to the kind of experiment: activators of CRF receptor 2 with binding protein – uHTS hits, confirmation (AID 602473). Type of test: functional. The conditions noted are these: read-out: EC50_Mean.
Test [4] is described as follows: CRF-BP/CRF-R2 complex antagonists, dose response, cell-based, uHTS hits, 384-well (AID 651639). Type of test: functional, Homo sapiens. The conditions noted are these: read-out: IC50_Mean.
Test [5] deals with Nuclear receptor subfamily 5 group A member 2 (Homo sapiens, UniProt O00482). The test is classed as functional, cell-based.
Sequence of Nuclear receptor subfamily 5 group A member 2 (O00482 whole entry): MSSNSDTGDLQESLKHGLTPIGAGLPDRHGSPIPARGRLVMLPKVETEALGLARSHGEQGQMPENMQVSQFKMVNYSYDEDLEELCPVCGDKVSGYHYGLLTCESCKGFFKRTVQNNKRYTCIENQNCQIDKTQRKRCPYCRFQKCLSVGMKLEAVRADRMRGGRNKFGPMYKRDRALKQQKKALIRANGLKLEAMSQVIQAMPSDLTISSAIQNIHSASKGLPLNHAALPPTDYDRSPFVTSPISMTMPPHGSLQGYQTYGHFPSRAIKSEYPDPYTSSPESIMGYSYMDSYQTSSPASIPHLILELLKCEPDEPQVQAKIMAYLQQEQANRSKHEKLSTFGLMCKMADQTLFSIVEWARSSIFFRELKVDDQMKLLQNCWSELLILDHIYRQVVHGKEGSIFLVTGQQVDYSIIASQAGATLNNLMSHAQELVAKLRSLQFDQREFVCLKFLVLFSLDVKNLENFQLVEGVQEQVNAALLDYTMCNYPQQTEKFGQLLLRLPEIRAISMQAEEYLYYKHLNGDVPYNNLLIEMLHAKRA
Test [6] addresses Steroidogenic factor 1 (Homo sapiens, UniProt Q13285). As to the kind of experiment: Counterscreen for inverse agonists of the liver receptor homolog-1 (LRH-1; NR5A2): Luminescence-based cell-based high throughput dose response assay to identify inverse agonists of the Steroidogenic Factor 1 Nuclear Receptor (SF1; NR5A1). Type of test: functional. On the technique in general: A counterscreen serves to expose hits that act by an unwanted route or on another target.

Test [7] is described as follows: StAR promoter reporter inhibition counter-screen, dose response, counter-screen for LRH-1 inverse agonist project, cell-based, luminescence, luciferase reporter (AID 651969). The test is classed as functional.

Active and inactive are the calls of the source. Bounds are passed on as bounds.

Sequence of Steroidogenic factor 1 (Q13285 whole entry): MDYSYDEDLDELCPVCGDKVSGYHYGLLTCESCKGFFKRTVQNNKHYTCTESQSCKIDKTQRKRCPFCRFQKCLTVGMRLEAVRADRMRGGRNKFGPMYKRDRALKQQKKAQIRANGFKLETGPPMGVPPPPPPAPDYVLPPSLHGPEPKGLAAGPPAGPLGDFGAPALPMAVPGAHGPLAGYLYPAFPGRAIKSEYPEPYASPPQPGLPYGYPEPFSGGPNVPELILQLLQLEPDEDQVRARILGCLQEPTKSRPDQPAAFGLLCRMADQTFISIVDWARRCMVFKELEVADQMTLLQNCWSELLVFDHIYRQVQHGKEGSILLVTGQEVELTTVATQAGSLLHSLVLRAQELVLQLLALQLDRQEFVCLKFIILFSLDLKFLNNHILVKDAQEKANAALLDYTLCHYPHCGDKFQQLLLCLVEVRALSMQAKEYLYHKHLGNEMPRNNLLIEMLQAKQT

In the case of `Cc1ccc(S(=O)(=O)NC2=NC(=O)/C(=C/c3ccccc3)S2)cc1`, the values for the IC50 in test [1], in test [2] and in test [4] were 69.2 µM (active), 18.4 µM (active) and > 20 µM (inactive), respectively. Also, in test [3], the EC50 is > 53 µM (inactive).
Regarding `O=C(COC(=O)C1(c2ccc(F)cc2)CCCC1)NCc1ccc2c(c1)OCO2`, the results for the IC50 in test [2] and in test [4] were < 0.368 µM (active) and 11.1 µM (active), respectively. The EC50 in test [3] was > 53 µM (inactive).
As to `Cc1ccc(-c2nn3c(C)nnc3s2)cc1NC(=O)c1cccs1`, the IC50 was 1.13 µM (active) in test [5], 0.684 µM (active) in test [6] and 35.9 µM (inactive) in test [7].
For `Cc1ccc(NC(=O)CN2C(=O)NC(C)(CC(C)C)C2=O)c(Br)c1` (stereo not drawn) the same measures were 11.7 µM (inactive), 8.09 µM (active) and 35.9 µM (inactive).

The values are drawn from ChEMBL document CHEMBL1201862, “PubChem BioAssay data set” (2004).
